These results are taken from patent publication US6376497B1, “Antifungal azole derivatives having a fluorinated vinyl group and process for preparing same” (Korea Research Institute of Chemical Technology, priority 1999, dated 2002).

Common to all, as to test: In vitro antifungal activity, microbroth dilution MIC
Holding throughout (assay type): cell-based
Details in all cases: RPMI-1640, 35° C., 4 to 48 hours, no growth observed

Test [1] deals with Aspergillus furnigatus B. 19119. The method, boiled down:
(§1)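 Broth microdilution adapted from NCCLS M27, in RPMI-1640 with 0.165 M MOPS, pH 7.0. Yeast or mould inoculum at 2×10^3 CFU/ml was mixed 1:1 with DMSO-derived compound solutions (200 to 0.10 μg/ml before mixing) and incubated at 35 °C for 4 to 48 h. MIC was the concentration showing no growth.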

A further test concerns Candida albicans C1-2. Put shortly: as §1
The subject of test [2] is Trichophyton mentagrophytes A. 9129. Put shortly: as §1
The subject of another test is Candida krusei K. 11655. The method, boiled down: as §1
Test [3] deals with Candida tropicalis A. 13803. The method, boiled down: as §1
Test [4] concerns Candida albicans A. 10231. The method, boiled down: as §1
The test system of test [5] is Aspergillus niger A. 16404. The method, boiled down: as §1
For test [6], the system named is Cryptococcus neoformans A. 34144. The method, boiled down:
as §1

The subject of test [7] is Cryptococcus neoformans IFM. 40092. Put shortly:
as §1

Test [8] has as its system Trichophyton mentagrophytes B. 32663. Put shortly: as §1
Test [9] deals with Candida albicans IFO. 1385. The method, boiled down:
as §1

Test [10] has as its system Cryptococcus neoformans B. 42419. Put shortly:
as §1

Test [11] relates to Torulopsis glabrata B. 16205. Put shortly: as §1
For test [12], the system named is Candida parapsitosis A. 7330. Put shortly:
as §1

Test [13] concerns Candida pseudotropicalis K. 11658. Put shortly:
as §1

As for `FC(=C(c1cc(Cl)cc(Cl)c1)C(F)(F)F)N1CCN(c2ccc(OCC3COC(Cn4ccnc4)(c4ccc(Cl)cc4Cl)O3)cc2)CC1` (mixture of isomers) [Ex. 136], in test [1], the “Minimal inhibitory concentration(MIC), A furnigatus B. 19119” value is more than 100 µg/mL. Moreover, the “Minimal inhibitory concentration(MIC), C. albicans C1-2” value in the test with Candida albicans C1-2 is more than 100 µg/mL. The “Minimal inhibitory concentration(MIC), T. mentagrophytes A. 9129” value in test [2] is more than 100 µg/mL. Besides, in the test with Candida krusei K. 11655, the “Minimal inhibitory concentration(MIC), C. krusei K. 11655” value was more than 100 µg/mL. In addition, in test [3], the “Minimal inhibitory concentration(MIC), C. tropicalis A. 13803” value is more than 100 µg/mL. Also, in test [4], the “Minimal inhibitory concentration(MIC), C. albicans A. 10231” value is more than 100 µg/mL. Also, in test [5], the “Minimal inhibitory concentration(MIC), A. niger A. 16404” value was more than 100 µg/mL. The “Minimal inhibitory concentration(MIC), Cry. neoformans A. 34144” value in test [6] was more than 100 µg/mL. In test [7], the “Minimal inhibitory concentration(MIC), Cry. neoformans IFM. 40092” value was found to be 1.56 µg/mL. Besides, in test [8], the “Minimal inhibitory concentration(MIC), T. mentagrophytes B. 32663” value was more than 100 µg/mL. Besides, the “Minimal inhibitory concentration(MIC), C. albicans IFO. 1385” value in test [9] is more than 100 µg/mL. In addition, the “Minimal inhibitory concentration(MIC), Cry. neoformans B. 42419” value in [10] was more than 100 µg/mL. The “Minimal inhibitory concentration(MIC), T. glabrata B. 16205” value in test [11] is more than 100 µg/mL. Moreover, in [12], the “Minimal inhibitory concentration(MIC), C. parapsitosis A. 7330” value is more than 100 µg/mL. Besides, in test [13], the “Minimal inhibitory concentration(MIC), C. pseudotropicalis K. 11658” value was more than 100 µg/mL.
Consider `FC(=C(c1ccccc1)C(F)(F)F)N1CCN(c2ccc(OCC3COC(Cn4ccnc4)(c4ccc(F)cc4F)O3)cc2)CC1` (mixture of isomers) [Ex. 138], for which the “Minimal inhibitory concentration(MIC), A furnigatus B. 19119” value in [1] was 12.5 µg/mL. Also, the “Minimal inhibitory concentration(MIC), C. albicans C1-2” value in the test with Candida albicans C1-2 is more than 100 µg/mL. In addition, in [2], the “Minimal inhibitory concentration(MIC), T. mentagrophytes A. 9129” value turned out to be 3.13 µg/mL. Besides, the “Minimal inhibitory concentration(MIC), C. krusei K. 11655” value in the test on Candida krusei K. 11655 was 1.56 µg/mL. For the same molecule, the “Minimal inhibitory concentration(MIC), C. tropicalis A. 13803” value in test [3] was more than 100 µg/mL. In addition, the “Minimal inhibitory concentration(MIC), C. albicans A. 10231” value in [4] was more than 100 µg/mL. Besides, the “Minimal inhibitory concentration(MIC), A. niger A. 16404” value in test [5] came to 100 µg/mL. Also, the “Minimal inhibitory concentration(MIC), Cry. neoformans A. 34144” value in test [6] amounted to 0.78 µg/mL. The “Minimal inhibitory concentration(MIC), Cry. neoformans IFM. 40092” value in test [7] is “≦0.10 μg/ml”. For the same molecule, the “Minimal inhibitory concentration(MIC), T. mentagrophytes B. 32663” value in [8] is on record as “≦0.10 μg/ml”. Also, in test [9], the “Minimal inhibitory concentration(MIC), C. albicans IFO. 1385” value was determined as 0.78 µg/mL. Also, the “Minimal inhibitory concentration(MIC), Cry. neoformans B. 42419” value in [10] is 0.78 µg/mL. For the same molecule, the “Minimal inhibitory concentration(MIC), T. glabrata B. 16205” value in [11] turned out to be 100 µg/mL. In addition, the “Minimal inhibitory concentration(MIC), C. parapsitosis A. 7330” value in [12] amounted to 0.78 µg/mL. Besides, the “Minimal inhibitory concentration(MIC), C. pseudotropicalis K. 11658” value in [13] worked out at 1.56 µg/mL.
In the case of `Cc1cccc(C(=C(F)N2CCN(c3ccc(OCC4COC(Cn5ccnc5)(c5ccc(F)cc5F)O4)cc3)CC2)C(F)(F)F)c1` (mixture of isomers) [Ex. 139], the “Minimal inhibitory concentration(MIC), A furnigatus B. 19119” value in test [1] stood at 25.0 µg/mL. Also, the “Minimal inhibitory concentration(MIC), C. albicans C1-2” value in the test on Candida albicans C1-2 was more than 100 µg/mL. In addition, the “Minimal inhibitory concentration(MIC), T. mentagrophytes A. 9129” value in test [2] amounted to 6.25 µg/mL. Further, the “Minimal inhibitory concentration(MIC), C. krusei K. 11655” value in the test on Candida krusei K. 11655 was 1.56 µg/mL. For the same molecule, the “Minimal inhibitory concentration(MIC), C. tropicalis A. 13803” value in [3] is more than 100 µg/mL. In addition, in test [4], the “Minimal inhibitory concentration(MIC), C. albicans A. 10231” value was more than 100 µg/mL. Also, the “Minimal inhibitory concentration(MIC), A. niger A. 16404” value in test [5] is 100 µg/mL. Further, in test [6], the “Minimal inhibitory concentration(MIC), Cry. neoformans A. 34144” value worked out at 0.78 µg/mL. Besides, the “Minimal inhibitory concentration(MIC), Cry. neoformans IFM. 40092” value in [7] was “≦0.10 μg/ml”. Besides, the “Minimal inhibitory concentration(MIC), T. mentagrophytes B. 32663” value in test [8] was 0.39 µg/mL. Further, the “Minimal inhibitory concentration(MIC), C. albicans IFO. 1385” value in [9] amounted to 0.78 µg/mL. The “Minimal inhibitory concentration(MIC), Cry. neoformans B. 42419” value in test [10] worked out at 0.78 µg/mL. Moreover, in [11], the “Minimal inhibitory concentration(MIC), T. glabrata B. 16205” value came to 100 µg/mL. The “Minimal inhibitory concentration(MIC), C. parapsitosis A. 7330” value in test [12] stood at 0.78 µg/mL. Moreover, the “Minimal inhibitory concentration(MIC), C. pseudotropicalis K. 11658” value in [13] was found to be 1.56 µg/mL.
